Patent EP1137645B1, “ALPHA-METHYLBENZYL-CONTAINING THIOUREA INHIBITORS OF HERPES VIRUSES CONTAINING A […] GROUP” (Wyeth, priority 1998, dated 2000)
≈ marks a conversion by molar mass, not a printed value. Like-named read-outs stand apart in the source and are kept apart here.

Legend:
[1] = system: HCMV recombinant mutant virus whose genome contains the prokaryotic beta-glucuronidase gene; experiment: microbe, parasite or virus in culture; format: cell-based, human cytomegalovirus; details: Human betaherpesvirus 5, Fibroblast
Method in brief: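 Antiviral IC50 estimated from reduced reporter activity across compound amounts: lysates prepared 96 h after infection were tested with p-nitrophenyl- or methylumbelliferyl-glucuronide. Cells were human foreskin fibroblasts, infected alongside inhibitor with HCMV (e.g. RV145) expressing viral promoter-driven beta-glucuronidase.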

[2] = system: HSV- I; experiment: HSV antiviral (ELISA) assay; format: cell-based; details: read-out: IC50 (ug/ml) HSV
Method in brief: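 IC50 from fluorescence versus untreated control in a cell ELISA: anti-glycoprotein D antibody, β-galactosidase-conjugated secondary, 4-methyl umbelliferone read at 365/450 nm. Vero cells (2% FBS DMEM) received compound 30 min pre-infection with HSV-1 at MOI 0.006, fixed ~24 h post-infection.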

[3] = system: VZV strain Ellen; experiment: VZV antiviral (ELISA) assay; format: cell-based
Method in brief: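 HFF cells infected with VZV Ellen at multiplicity below 0.1 overnight, then mixed infected/uninfected cells seeded with compound in DMEM/2% FBS and incubated three days at 37°C, 5% CO2.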

[4] = read-out: IC50 ug/ml HCMV, HCMV, human foreskin fibroblasts
[5] = Human alphaherpesvirus 3, HFF, read-out: % inhibition 10 ug/ml VZV
[6] = Human alphaherpesvirus 3, HFF, read-out: IC50 (ug/ml) VZV
[7] = Human alphaherpesvirus 3, HFF, read-out: IC50 (ug/ml) VZV, VZV strain Ellen, HFF cells, ELISA
[8] = Human alphaherpesvirus 3, read-out: % inhibition 10 ug/ml VZV, 10 ug/ml, VZV strain Ellen, HFF cells, ELISA
[9] = Human alphaherpesvirus 3, VZV strain Ellen, HFF cells, ELISA, read-out: IC50 (ug/ml) VZV

SMILES | IC50 [1, 4] | IC50 ([2]; HSV- I, Vero cells, ELISA) | inhibition at 10 µg/mL [3, 5] | IC50 [3, 6] | IC50 ([2]; Vero) | IC50 [3, 7] | IC50 ([1]; read-out: IC50 ug/ml HCMV) | inhibition at 10 µg/mL [3, 8] | IC50 [3, 9]
CN(C)c1c(Cl)cccc1NC(=S)Nc1ccc(NC(=O)c2c(F)cccc2F)cc1 [Example 504, N-{4-[3-(3-Chloro-2-dimethylamino-phenyl)-thioureido]-phenyl}-2,6-difluoro-benzamide] | 2 µg/mL (≈ 4.34 µM) | 6 µg/mL (≈ 13 µM) | 99% | 4.5 µg/mL (≈ 9.76 µM) |  |  |  |  | 
CN(C)c1ccc(Cl)cc1NC(=S)Nc1ccc(NC(=O)c2ccccc2F)cc1 [Example 490, N-{4-[3-(5-Chloro-2-dimethylamino-phenyl)-thioureido]-phenyl}-2-fluoro-benzamide] | 2.5 µg/mL (≈ 5.64 µM) | 1 µg/mL (≈ 2.26 µM) | 68% | > 10 µg/mL |  |  |  |  | 
CC(NC(=S)Nc1ccc(NC(=O)c2cccc3cccnc23)cc1)c1ccc(F)cc1 (centres unmarked) [Example 991, Quinoline-8-carboxylic acid (4-{3-[1-(4-fluoro-phenyl)-ethyl]-thioureido}-phenyl)-amide] | 7.4 µg/mL (≈ 16.6 µM) | > 10 µg/mL |  | 0.1 µg/mL (≈ 0.225 µM) |  |  |  |  | 
O=C(Nc1ccc(NC(=S)NCCCc2ccccc2)cc1)c1ccccc1F [Example 628, 2-Fluoro-N-{4-[3-(3-phenyl-propyl)-thioureido]-phenyl}-benzamide] | > 10 µg/mL |  |  |  | > 10 µg/mL | 10 µg/mL (≈ 24.5 µM) |  |  | 
C[C@H](NC(=S)Nc1ccc(NC(=O)c2ccccc2F)cc1)c1ccc(Br)cc1 [Example 1004, (S)-N-(4-{3-[1-(4-Bromo-phenyl)-ethyl]-thioureido}-phenyl)-2-fluoro-benzamide] | 4.2 µg/mL (≈ 8.89 µM) |  |  |  | > 10 µg/mL | 0.06 µg/mL (≈ 0.127 µM) |  |  | 
C[S+]([O-])c1ccc(NC(=S)Nc2ccc(NC(=O)c3c(F)cccc3F)cc2)cc1Cl (centres unmarked) [Example 392, N-{4-[3-(3-Chloro-4-methanesulfinyl-phenyl)-thioureido]-phenyl}-2,6-difluoro-benzamide] | 0.5 µg/mL (≈ 1.04 µM) | > 10 µg/mL | 92% | 2 µg/mL (≈ 4.17 µM) |  |  |  |  | 
O=C(Nc1ccc(NC(=S)Nc2ccc3[nH]nnc3c2)cc1)c1c(F)cccc1F [Example 527, N-{4-[3-(1H-Benzotriazol-5-yl)-thioureido]-phenyl}-2,6-difluoro-benzamide] |  | > 10 µg/mL |  |  |  |  | > 10 µg/mL | 20% | > 10 µg/mL
CC(NC(=S)Nc1ccc(NC(=O)c2ccccc2F)cc1)c1cccc(Cl)c1 (centres unmarked) [Example 779, N-(4-{3-[1-(3-Chloro-phenyl)-ethyl]-thioureido}-phenyl)-2-fluoro-benzamide] | 1.2 µg/mL (≈ 2.8 µM) |  |  |  | > 10 µg/mL | > 7.5 µg/mL |  |  | 
O=C(Nc1ccc(NC(=S)Nc2ccc(I)c(Cl)c2)cc1)c1ccccc1F [Example 916, N-{4-[3-(3-Chloro-4-iodo-phenyl)-thioureido]-phenyl}-2-fluoro-benzamide] | 3 µg/mL (≈ 5.71 µM) | > 10 µg/mL | 30% | > 10 µg/mL |  |  |  |  | 
Nc1ccc(F)cc1NC(=S)Nc1ccc(NC(=O)c2ccccc2F)cc1 [Example 1007, N-{4-[3-(2-Amino-5-fluoro-phenyl)-thioureido]-phenyl}-2-fluoro-benzamide] |  | 1.2 µg/mL (≈ 3.01 µM) |  |  |  |  | > 10 µg/mL |  | > 10 µg/mL
CN(C)c1ccc(NC(=S)Nc2ccc(NC(=O)c3c(F)cccc3F)cc2)cc1Cl [Example 348, N-{4-[3-(3-Chloro-4-dimethylamino-phenyl)-thioureido]-phenyl}-2,6-difluoro-benzamide] | 0.8 µg/mL (≈ 1.74 µM) | 4 µg/mL (≈ 8.68 µM) | 95% | 8 µg/mL (≈ 17.4 µM) |  |  |  |  | 
NNC(=O)c1cccc(NC(=S)Nc2ccc(NC(=O)c3ccccc3F)cc2)c1 [Example 463, 2-Fluoro-N-{4-[3-(3-hydrazinocarbonyl-phenyl)-thioureido]-phenyl}-benzamide] |  | > 10 µg/mL |  |  |  |  | > 10 µg/mL | 19% | > 10 µg/mL
COc1cccc(C(=O)Nc2ccc(NC(=S)NC(C)c3ccc(F)cc3)cc2)c1 (centres unmarked) [Example 753, N-(4-{3-[1-(4-Fluoro-phenyl)-ethyl]-thioureido}-phenyl)-3-methoxybenzamide] | > 0.5 µg/mL |  |  |  | > 10 µg/mL | > 7.5 µg/mL |  |  | 
COc1cc(OC)c(NC(=S)Nc2ccc(NC(=O)c3cccc(OC(C)=O)c3)cc2)cc1Cl [Example 253, Acetic acid 3-{4-[3-(5-chloro-2,4-dimethoxy-phenyl)-thioureido]-phenyl-carbamoyl}-phenyl ester] | 8 µg/mL (≈ 16 µM) | 1.2 µg/mL (≈ 2.4 µM) | 100% | 6 µg/mL (≈ 12 µM) |  |  |  |  | 
COc1cc(OC)c(NC(=S)Nc2ccc(NC(=O)c3ccccc3C(=O)O)cc2)cc1Cl [Example 184, N-{4-[3-(5-Chloro-2,4-dimethoxy-phenyl)-thioureido]-phenyl}-phthalamic acid] | > 50 µg/mL |  |  |  | > 50 µg/mL | > 10 µg/mL |  |  | 
O=C(Nc1ccc(NC(=S)NCc2cccc(Cl)c2)cc1)c1ccccc1F [Example 511, N-{4-[3-(3-Chloro-benzyl)-thioureido]-phenyl}-2-fluoro-benzamide] | > 10 µg/mL | > 10 µg/mL | 10% | > 10 µg/mL |  |  |  |  | 
CN1CCC(N(C)c2ccc(NC(=S)Nc3ccc(NC(=O)c4c(F)cccc4F)cc3)cc2Cl)C1 (centres unmarked) [Example 349, N-[4-(3-{3-Chloro-4-[methyl-(1-methyl-pyrrolidin-3-yl)-amino]-phenyl}-thioureido)-phenyl]-2,6-difluoro-benzamide] | 1.2 µg/mL (≈ 2.26 µM) | 5 µg/mL (≈ 9.43 µM) | 110% | 4 µg/mL (≈ 7.55 µM) |  |  |  |  | 
COc1ccc(C(C)NC(=S)Nc2ccc(NC(=O)c3ccccc3F)cc2)cc1Cl (centres unmarked) [Example 1000, N-(4-{3-[1-(3-Chloro-4-methoxy-phenyl)-ethyl]-thioureido}-phenyl)-2-fluoro-benzamide] | 2 µg/mL (≈ 4.37 µM) |  |  |  | > 10 µg/mL | 6 µg/mL (≈ 13.1 µM) |  |  | 
CC(NC(=S)Nc1ccc(NC(=O)c2ccccc2Br)cc1)c1ccc(F)cc1 (centres unmarked) [Example 795, 2-Bromo-N-(4-{3-[1-(4-fluoro-phenyl)-ethyl]-thioureido}-pbenyl)-benzamide] | 4.1 µg/mL (≈ 8.68 µM) |  |  |  | 8.6 µg/mL (≈ 18.2 µM) | > 7.5 µg/mL |  |  | 
COc1cc(OC)c(NC(=S)Nc2ccc(NC(=O)c3ccccc3C)cc2)cc1Br [Example 829, N-{4-[3-(5-Bromo-2,4-dimethoxy-phenyl)-thioureido]-phenyl}-2-methyl-benzamide] | 10 µg/mL (≈ 20 µM) | 0.25 µg/mL (≈ 0.5 µM) | 50% | > 15 µg/mL |  |  |  |  | 
COc1cccc(C(=O)Nc2ccc(NC(=S)Nc3cc(Cl)c(OC)c(Cl)c3)cc2)c1 [Example 875, N-{4-[3-(3,5-Dichloro-4-methoxy-phenyl)-thioureido]-phenyl}-3-methoxy-benzamide] | 0.4 µg/mL (≈ 0.84 µM) | 6 µg/mL (≈ 12.6 µM) | 20% | > 10 µg/mL |  |  |  |  | 
COc1cc(OC)c(NC(=S)Nc2ccc(NC(=O)c3ccccc3N)cc2)cc1Cl [Example 181, 2-Amino-N-{4-[3-(5-chloro-2,4-dimethoxy-phenyl)-thioureido]-phenyl}-benzamide] | > 10 µg/mL | 1.5 µg/mL (≈ 3.28 µM) | 60% | > 10 µg/mL |  |  |  |  | 
COc1cc(OC)c(NC(=S)Nc2ccc(NC(=O)c3ccc(F)cc3)cc2)cc1Cl [Example 116, N-{4-[3-(5-Chloro-2,4-dimethoxy-phenyl)-thioureido]-phenyl}-4-fluoro-benzamide] | 3 µg/mL (≈ 6.52 µM) |  | 0% | > 10 µg/mL | 2 µg/mL (≈ 4.35 µM) |  |  |  | 
CC(NC(=S)Nc1ccc(NC(=O)c2ccccc2F)cc1)c1ccc(S(=O)(=O)N2CCCCC2)cc1 (centres unmarked) [Example 1009, 2-Fluoro-N-[4-(3-{1-[4-(piperidine-1-sulfonyl)-phenyl]-ethyl}-thioureido)-phenyl]-benzamide] | > 10 µg/mL |  |  |  | > 10 µg/mL | > 10 µg/mL |  |  | 
Nc1cccc(NC(=S)Nc2ccc(NC(=O)c3ccccc3F)cc2)c1 [Example 434, N-{4-[3-(3-Amino-phenyl)-thioureido]-phenyl}-2-fluoro-benzamide] |  | 10 µg/mL (≈ 26.3 µM) |  |  |  |  | 5 µg/mL (≈ 13.1 µM) | 0% | > 10 µg/mL
CC(NC(=S)Nc1ccc(NC(=O)c2cc3ccccc3o2)cc1)c1cc2ccccc2o1 (centres unmarked) [Example 981, Benzofuran-2-carboxylic acid {4-[3-(1-benzofuran-2-yl-ethyl)-thioureido]-phenyl}-amide] | > 10 µg/mL | > 10 µg/mL |  | 0.2 µg/mL (≈ 0.439 µM) |  |  |  |  | 
COc1cc(OC)c(NC(=S)Nc2ccc(NC(=O)c3cccc4ccccc34)cc2)cc1Cl [Example 157, Naphthalene-1-carboxylic acid {4-[3-(5-chloro-2,4-dimethoxy-phenyl)-thioureido]-phenyl}-amide] | 8 µg/mL (≈ 16.3 µM) | 0.9 µg/mL (≈ 1.83 µM) | 32% | > 10 µg/mL |  |  |  |  | 
CN(c1ccc(NC(=S)Nc2ccc(NC(=O)c3c(F)cccc3F)cc2)cc1Cl)C1CCCCC1 [Example 248, N-(4-{3-[3-Chloro-4-(cyclohexyl-methyl-amino)-phenyl]-thioureido}-phenyl)-2,6-difluoro-benzamide] | 2 µg/mL (≈ 3.78 µM) | > 10 µg/mL | 96% | 2 µg/mL (≈ 3.78 µM) |  |  |  |  | 
